For experiment [1], the system named is macrophage-polarised primary bone marrow derived monocytes. Nature of the experiment: eGFP mRNA transfection of macrophage-polarised primary mouse bone marrow derived monocytes, flow cytometry. It counts as cell-based. Conditions: GSCG1,2-RHL NP=0.6:1, GSCG1,2-RL, 3-LR NP=0.16:1, GSCG1,RL, 2-LR NP=8:1, DOTMA:DOPE w/w 10:1, lipid-only DOTMA/DOPE w/w 3.2:1, FIG. 2. Here is the method:
BMDM cells were isolated using the StemCell Tech EasySep Mouse Monocyte Isolation Kit from mouse bone marrow cell suspension. The cells were resuspended in complete medium (DMEM+1% glutamax+10% heat inactivated FBS+1% Pen/Strep) enriched with 50 ng/ml murine M-CSF (1:1000 of 50 μg/ml stock) at 1E+6 cells/mi. 2 million cells (i.e. 2 mL) was seeded in each well of 6-well plate(s). The plate was incubated at 37° C. for 4 days. Half media exchange was performed using complete media enriched with […] murine M-CSF and 40 ng/ml murine IL-4. Cells were then harvested the next day (day 5) by washing cells with PBS and a 10 minute incubation with 5 mM EDTA (diluted in PBS) at 37° C. followed by plate tapping and resuspension. […]
Data were collected using a BD LSRFortessa I analyser running […] software (Beckton Dickinson). All collected data were analysed using FlowJo 10.0 software.
Transfection efficiency of macrophage-polarised primary bone marrow derived monocytes using various peptide dendrimer/lipid nanoparticles was assessed and compared to lipid-only nanoparticles (LPX-RNA). Each nanoparticle, with or without dendrimer, included eGFP mRNA to allow analysis of absolute numbers of cells transfected to be assessed by flow cytometry. […]

The test system of a further experiment is lung and spleen. The experiment is described as follows: Luciferase mRNA expression in mouse tissues after intravenous administration (bioluminescence). It counts as in vivo, Balb/c mice. The following applies: 6 hours, DOTMA/DOPE w/w=23:1 to mRNA, dendrimers NP=0.6:1, FIG. 11. As to the method:
All animal procedures were conducted following the Animal Research Reporting of In Vivo Experiments and approved by the UK Home Office for the conduct of regulated procedures under license. For the data underlying FIG. 11, Balb/c mice aged 4 weeks were purchased from Jackon's Laboratory and left to acclimate in the new housing environment for 1-week upon their arrival. All mice were weighed and warmed for 15 min at 37 C in a heating chamber. The formulations were delivered intravenously (5 mL/kg) via the tail vein using 30 G insulin syringes (BD biosciences).
All mice were imaged 6 hours post injection. BLI was performed using an IVIS Lumina II (Perkin Elmer) imaging system. Mice were administered D-luciferin (GoldBio) at a dose of 10 uL/g. Mice were anaesthetised in a chamber with 2.5% isoflurane and then placed on a heated imaging platform while being maintained on 2.5% isoflurane. For the data underlying FIG. 11, mice were imaged 10 min post administration of D-luciferin with an exposure time set at 45 sec to ensure the signal acquired was within an effective detection range (binning medium). Bioluminescence signal was quantified by measuring photon flux (photons/s) using the Living Image software (Perkin Elmer). […] The organs were placed in the centre of imaging platform (Lumina II system) and signal was measured using the acquisition settings detailed above. […]

As to (RHL)4(KRHL)2KGSC-NH2 [GSCG1,2-RHL], the transfection efficiency result in experiment [1] is recorded as “approximately 35%”. The “delivery of luciferase mRNA cargo to lung and spleen (bioluminescence)” value in the experiment with lung and spleen is recorded as “further improved”.
